Residues, ends and D or L forms follow the SMILES beside them.
What was measured:
[1] = target: T1, Kly18 (Karilysin catalytic domain) (Tannerella forsythia, UniProt D0EM77); conditions: cited from earlier work
T1 construct: Karilysin catalytic domain (Kly18) and intact Kly48 were produced as previously described; made in house
Text: The development of MMP inhibitors is highly relevant, due to the involvement of MMPs in several pathologies. Some candidate molecules act by blocking the MMP-active sites via binding to the catalytic Zn^2+ through chelators such as hydroxamate. These approaches have been successful for MMP inhibition. However, the inhibitors have a broad specificity towards other MMPs due to very similar active site geometries of matrix metalloproteinases. An alternative approach to specific MMP inhibitor design is to utilize larger molecules, such as peptides, that interact with the activ ...

[2] = target: T1, Kly18 (Karilysin catalytic domain); test: biochemical; conditions: for Kly18 inhibitory activity, single concentration screen: 87 µM peptide
Experimental: (§1) Kly18 and Kly48 protease activities were monitored essentially as described. One hundred µl working volumes were used in black untreated polypropylene microtitre plates and FITC-casein was used as the substrate. Assays were performed at 37°C using 500 nM of Kly18 (or Kly48) in assay buffer (100 mM Tris-HCl, 5mM CaCl2, pH 8.0), at a FITC-casein concentration of 25 µg/ml. […] Peptides were dissolved in Milli Q water and added in varying molarities. The assay setup was as follows; Kly18 (or Kly48) was diluted in assay buffer together with peptide, followed by 30 minutes incubation on a vertical shaker at 22°C. Then FITC-casein was added and fluorescence formation was monitored at 37°C for 90 minutes with measurements every ten minutes.

intact Karilysin (Kly48) = target: T2, intact Karilysin (Kly48) (Tannerella forsythia, UniProt D0EM77); test: Kly48 protease activity assay with FITC-casein substrate; format: biochemical; conditions: 500 nM Kly48, FITC-casein, peptide 2.3 µM to 55.6 µM; three experiments
T2 construct: made in house
Experimental: as §1

Karilysin (Kly48) = target: T3, Karilysin (Kly48) (Tannerella forsythia, UniProt D0EM77); test: Auto-processing of Kly48 monitored by SDS-PAGE; format: biochemical; conditions: Kly48 13 µM, peptide 455 µM, 37°C, 50 mM Tris-HCl, 2.5 mM CaCl2, pH 8.0, up to 48 hours
T3 construct: made in house
Experimental: Karilysin (Kly48) at 13 µM was incubated at 37°C in 50 mM Tris-HCl, 2.5 mM CaCl2, 0.02% NaN3 pH 8.0 alone or in the presence of the peptide SWFPL at 455 µM. At different time points samples were withdrawn and the Kly48 autocatalytic processing was monitored by SDS-PAGE using 10% gels and the Tris-HCl/Tricine buffer system. Gels were stained with 0.1% Coomassie Brilliant Blue R-250 in 10% acetic acid followed by destaining. Samples were run alongside a Low Molecular Weight SDS-PAGE Marker.

T1 sequence (D0EM77 35-195): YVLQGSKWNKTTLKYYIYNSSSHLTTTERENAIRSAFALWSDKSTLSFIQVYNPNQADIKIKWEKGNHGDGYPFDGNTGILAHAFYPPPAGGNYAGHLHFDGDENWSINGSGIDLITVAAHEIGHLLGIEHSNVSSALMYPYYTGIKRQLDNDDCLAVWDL
T3 sequence (D0EM77 35-472): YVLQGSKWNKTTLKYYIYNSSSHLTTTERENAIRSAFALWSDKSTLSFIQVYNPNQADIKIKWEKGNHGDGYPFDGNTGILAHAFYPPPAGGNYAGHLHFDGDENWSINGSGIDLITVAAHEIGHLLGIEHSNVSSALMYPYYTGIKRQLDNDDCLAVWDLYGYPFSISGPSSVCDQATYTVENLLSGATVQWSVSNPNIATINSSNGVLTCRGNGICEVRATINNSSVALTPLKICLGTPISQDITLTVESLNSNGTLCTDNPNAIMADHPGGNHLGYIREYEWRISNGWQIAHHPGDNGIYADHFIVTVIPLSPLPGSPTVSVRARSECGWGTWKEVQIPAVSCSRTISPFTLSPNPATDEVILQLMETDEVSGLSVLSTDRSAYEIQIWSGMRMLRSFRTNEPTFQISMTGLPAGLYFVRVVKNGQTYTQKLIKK
T2 sequence (D0EM77 35-472): as above

Compound: c1cnc2c(c1)ccc1cccnc12 [1,10-phenanthroline]
- Inhibition of Kly18 by small molecule chelators [1]: inhibited

Compound: NC(=O)[C@@H]1CCCN1C(=O)[C@H](Cc1ccccc1)NC(=O)[C@H](Cc1c[nH]c2ccccc12)NC(=O)[C@@H](N)CO [15-7, (NH2)-SWFP-(CONH2)] (H-SWFP-NH2)
- Ki [2]: 10.7 ± 2.25 µM
- Kly18 inhibitory activity, single concentration screen ([2]; FITC-casein substrate): retained efficient inhibitory potency

Compound: O=C(O)CN(CCN(CC(=O)O)CC(=O)O)CC(=O)O [EDTA]
- Inhibition of Kly18 by small molecule chelators [1]: inhibited

Compound: (NH2)-WFP-(CONH2) [15-8]
- Kly18 inhibitory activity, single concentration screen ([2]; FITC-casein substrate): lost most or all of their Kly18 inhibition capacity
- Kly18 inhibitory activity, single concentration screen ([2]; FITC-casein substrate, listed as (NH2)-WFP-(CONH2)): completely inactive

Compound: (NH2)-WFPL-(CONH2) [15-15]
- Kly18 inhibitory activity, single concentration screen ([2]; FITC-casein substrate): lost most or all of their Kly18 inhibition capacity

Compound: (NH2)-WFPLR-(CONH2) [15-14]
- Kly18 inhibitory activity, single concentration screen ([2]; FITC-casein substrate): lost most or all of their Kly18 inhibition capacity

Compound: H-SAAALRSGGGS-NH2 [control peptide, control peptide with the WFP motif replaced by a triple alanine, reference compound]
- Kly18 inhibition at very high dose ([2]; 174 µM peptide, FITC-casein substrate, two experiments): curve similar to that of Kly18 with no peptide present

Compound: H-SWAPLRSGGGS-NH2 [15-16]
- Kly18 inhibitory activity, single concentration screen ([2]; FITC-casein substrate): inactive

Compound: H-SWFPL-NH2 [15-6, (NH2)-SWFPL-(CONH2)]
- Ki [2]: 8.36 ± 2.34 µM
- Inhibition of Kly48 proteolytic activity (dose-response) (intact Karilysin (Kly48)): clear dose-response inhibition
- Effect on Kly48 auto-processing to Kly38 and Kly18 (Karilysin (Kly48)): inhibited the auto-processesing efficiently

Compound: H-SWFPLR-NH2 [15-5, (NH2)-SWFPLR-(CONH2)]
- Ki [2]: 6.52 ± 0.88 µM

Compound: H-SWFPLRSGGGS-NH2 [15-0]
- Ki [2]: 5.34 ± 0.51 µM

Compound: H-WFPLRS-NH2 [15-13]
- Kly18 inhibitory activity, single concentration screen ([2]; FITC-casein substrate): lost most or all of their Kly18 inhibition capacity

Compound: H-WFPLRSG-NH2 [15-12]
- Kly18 inhibitory activity, single concentration screen ([2]; FITC-casein substrate): lost most or all of their Kly18 inhibition capacity

Compound: H-WFPLRSGG-NH2 [15-11]
- Kly18 inhibitory activity, single concentration screen ([2]; FITC-casein substrate): lost most or all of their Kly18 inhibition capacity

Compound: H-WFPLRSGGG-NH2 [15-10]
- Kly18 inhibitory activity, single concentration screen ([2]; FITC-casein substrate): lost most or all of their Kly18 inhibition capacity

Reference: article PMC3485312, “A Phage Display Selected 7-mer Peptide Inhibitor of the Tannerella forsythia Metalloprotease-Like Enzyme Karilysin can be Truncated to Ser-Trp-Phe-Pro” (PLoS ONE, 2012)
